Test results taken from ChEMBL document CHEMBL3507680, “University of Dundee, Gates Library screen for HepG2 cell viability”.

experiment: Human HepG2 cell viability assay in 384 well format; format: toxicity, cell-based; set-up: dose 125 nL, time 70.5 hour; cytotoxicity at 70.5 h: concentration not given beside the values; settings: HepG2 cells, read-out: Inhibition

SMILES	cytotoxicity at 70.5 h
CCc1ccc(C2CC(=O)Nc3c2c(=O)n(C)c2ncnn32)cc1 (stereo unspecified)	-2.98%
CC(O)(CCc1ccccc1)CNC(=O)c1ccsc1 (stereo unspecified)	-2.72%
CC(O)(CCc1ccccc1)CNC(=O)c1ccc(F)cc1 (stereo unspecified)	14.3%
O=C(NCC1(O)CCCC1)c1ccc2nsnc2c1	-20.9%
O=C(NCC(O)c1cccs1)c1ccco1 (stereo unspecified)	-10.6%
CN(C)c1cccc(C(=O)NCC(O)c2cccs2)c1 (stereo unspecified)	20.3%
CC(=O)c1cccc(S(=O)(=O)NCC(C)(O)c2cccs2)c1 (stereo unspecified)	-7.85%
COc1ccc(S(=O)(=O)NCC(C)(O)c2cccs2)cc1Cl (stereo unspecified)	-10.5%
Cc1nc(C)c(CC(=O)NCc2ccccc2F)s1	-11.1%
COC1CCN(C(=O)Cn2ccc3ccccc32)CC1	-3.16%
O=C(Cn1cccn1)Nc1ccc(N2CCOCC2)cc1	0.51%
O=C(CNC(=O)c1c[nH]c2ccccc12)NCCCn1ccnc1	-5.85%
Cc1cc(NC(=O)Cn2cnc(-c3cccs3)cc2=O)no1	-2.01%
O=C(NCC1(CO)CC1)c1ccccc1F	-8.21%
COc1nn(C)cc1C(=O)NCC(=O)NCc1ccccn1	-11%
COC1COC2(CCN(C(=O)c3ncccn3)CC2)C1 (stereo unspecified)	14.8%
O=C(NCc1ccccc1)N1Cc2nc(COCC3CC3)oc2C1	4.6%
O=C([C@@H]1CC[C@@H]2[C@@H](CCN2c2ncccn2)O1)N1CCCO1	11.8%
CC(=O)N1CC2(CCN(C(=O)C3CC3)CC2)c2cc(C)ccc21	6.48%
CN(Cc1cccnc1)C1CC2(CCN(C(=O)c3ccnnc3)CC2)C1	-13.1%
Cc1ccoc1C(=O)N1CC[C@@]2(C[C@H](NS(C)(=O)=O)CCO2)C1	-18.1%
Cc1ccc(N2CCC3(CCN(Cc4ccccn4)CC3)CC2)nn1	-11.7%
CCC(=O)N1CCC2(CC1)CN(C(C)=O)c1ccc(C)cc12	-9.39%

SMILES	cytotoxicity at 70.5 h
O=S(=O)(c1cccs1)N1CCN2C[C@H](OCC3CC3)C[C@H]2C1	-3.74%
CC(C)C(=O)N1CCN(S(=O)(=O)C2CC2)CC2(CC(=O)N(C)C2)C1 (stereo unspecified)	-6.71%
Cc1ccc(N2CCC3(CCN(Cc4nccs4)CC3)CC2)nn1	-7.07%
CC(C)C(=O)N1CCN(S(C)(=O)=O)CC2(CC(=O)N(C)C2)C1 (stereo unspecified)	-7.11%
CCS(=O)(=O)N1CCN(C(=O)NC(C)C)CC2(CC(=O)N(C)C2)C1 (stereo unspecified)	-7.37%
O=C(c1ccco1)N1CC[C@H]2[C@H]1CCN2S(=O)(=O)C1CC1	-8.4%
Cc1ccc(CN2CCC3(CCN(Cc4ccncc4)CC3)CC2)cc1	-3.02%
CCN1CCC2(COCc3c(C)nc(N4CCOCC4)nc32)C1 (stereo unspecified)	11.1%
CCS(=O)(=O)N1Cc2nccn2CC(CN2CCCC2)C1 (stereo unspecified)	4.02%
O=C1[C@H]2CN(C3CCOCC3)C[C@H]2CN1Cc1cccnc1	3.06%
COc1nn(C)c2c1CCCN(S(=O)(=O)c1cccc(C)c1)C2	-4.74%
COc1nn(C)c2c1CCCN(S(=O)(=O)c1ccccc1F)C2	-1.52%
c1c(CN2CCCCC2)nc2n1CCN(CC1CC1)C2	0.696%
CC(C)CN1CCNC(=O)C12CCN(C(=O)c1ccccn1)CC2	9.35%
CN(C)C(=O)N1CCN(C(=O)c2ccc(Cl)cc2)CC2(CNC(=O)C2)C1 (stereo unspecified)	11%
CNC(=O)N1CCc2nc(C(=O)Nc3cccnc3)sc2CC1	-3.13%
CC(C)C(=O)N1CCC12CCCN(C(=O)c1ccnnc1)C2 (stereo unspecified)	-6.79%
O=C(c1c2c(NCC3CC3)ncnc2n2ccccc12)N1CCCC1	0.851%
O=C(c1c2c(N3CCOCC3)ncnc2n2ccccc12)N1CCCC1	-3.03%
CS(=O)(=O)N1CCCCC12CCN(c1nncs1)CC2	-1.19%
CN(C)C(=O)N1CCN(C(=O)c2ccccc2)CC2(CNC(=O)C2)C1 (stereo unspecified)	-1.67%
O=C(c1c2c(NCC3CC3)ncnc2n2ccccc12)N1CCOCC1	-1.89%
CCn1c(=O)c2sccc2n(CC(=O)Nc2cccc(Cl)c2)c1=O	8.59%

SMILES	cytotoxicity at 70.5 h
O=c1[nH]nc2c(N3CCC(NC4CCOCC4)CC3)nccn12	-11.2%
CC1CCN(c2nccn3c(=O)[nH]nc23)CC1	-3.79%
CC1CCCN(c2nccn3c(=O)[nH]nc23)C1 (stereo unspecified)	-7.92%
CCOCCCNC(=O)CN(c1cccc(F)c1)S(C)(=O)=O	-21.2%
COc1cccc(NC(=O)CC2Cn3ncnc3NC2=O)c1 (stereo unspecified)	-10.6%
CCSC1=Nc2c(cnn2-c2ccc(Cl)cc2)C2=NCCCN12	-7.4%
Cn1c(=O)c2c(n3ncnc13)NC(=O)CC2c1cccc(Br)c1 (stereo unspecified)	-9.38%
O=C1CC(c2ccc3c(c2)OCO3)c2cn[nH]c2N1 (stereo unspecified)	-11.7%
CCCOc1ccc(C2SCC(=O)Nc3c2c(=O)[nH]n3C(C)C)cc1 (stereo unspecified)	-18.7%
O=C(O)CCNC(=O)Cc1csc(-c2cccc(Cl)c2)n1	-14%
CSC1=Nc2c(cnn2-c2cccc(Cl)c2)C2=NCCCN12	-12%
Cn1c(=O)c2c(n3ncnc13)NC(=O)CC2c1ccc(F)cc1 (stereo unspecified)	-11.1%
CSC1=Nc2c(cnn2-c2ccc(Cl)cc2)C2=NCCCN12	-7.03%
COc1cccc(C2CC(=O)Nc3c2c(=O)n(C)c2ncnn32)c1 (stereo unspecified)	16.7%
Cn1c(=O)[nH]c(=O)n2c(CC(=O)Nc3c(Cl)cccc3Cl)cnc12	-14.2%
NCCc1c(-c2ccc(F)cc2)[nH][nH]c1=O	-3.38%
Cc1ccc(NC(=O)Cc2cnc3n(C)c(=O)[nH]c(=O)n23)cc1	-8.62%
Cn1c(=O)[nH]c(=O)n2c(CC(=O)NCc3ccccc3)cnc12	-12.3%
COC(=O)Cn1c(=O)nc2n1C(=O)N(c1ccc(C)cc1)C2	13.2%
CC(C)n1[nH]c(=O)c2c1NC(=O)CC2c1cccc(Br)c1 (stereo unspecified)	-12.9%
CC(C)(C)n1ncc2c1NC(=O)CC2c1cccc(O)c1 (stereo unspecified)	-4.31%
O=C(CSC1CCc2ccccc2NC1=O)NCc1cccs1 (stereo unspecified)	-13.4%
O=C(CCSC1CCc2ccccc2NC1=O)NCCCO (stereo unspecified)	-12.2%

SMILES	cytotoxicity at 70.5 h
O=C(Cn1cc(-c2ccccc2)ncc1=O)Nc1ncc[nH]1	-12.3%
COc1cccc(NC(=O)Cn2cc(-c3ccccc3)ncc2=O)c1	-8.81%
CC(C)NC(=O)C(NC(=O)N1CCN(c2ccc(Cl)cc2)CC1)C(C)C (stereo unspecified)	-13.3%
O=C(NCc1ccc(F)cc1)C1CCCN(c2ccc3nncn3n2)C1 (stereo unspecified)	22%
CCCc1nnsc1C(=O)N1CCN(CC(O)C2CC2)CC1 (stereo unspecified)	14.6%
CCCc1nnsc1C(=O)N1CCN(CC(O)c2ccco2)CC1 (stereo unspecified)	-0.0412%
COc1ccc(CNC(=O)N2CCN(CC(O)C3CC3)CC2)cc1 (stereo unspecified)	-3%
O=C(Nc1cccc(F)c1)C1=NOC2(CCNCC2)C1	-4.38%
O=C(CN1CCN(CC(O)C2CC2)CC1)NCc1ccccc1Cl (stereo unspecified)	-10.5%
OC(CN1CCN(Cc2cccc(F)c2)CC1)C1CC1 (stereo unspecified)	-11.3%
OC(CN1CCN(Cc2cccnc2)CC1)c1cccs1 (stereo unspecified)	-3.13%
CCO[C@@H]1C[C@H]2CN(S(=O)(=O)c3cccs3)CCN2C1	-4.39%
O=C1COC2(CCN(c3ccccn3)CC2)CN1	-19.6%
COc1ncnc2c1CCN(Cc1nccs1)CC2	-8.56%
O=C(C[C@@H]1COC[C@H]2CN(CC3CC3)C[C@@H]12)N1CCCCO1	5.39%
Cc1ccnc(OC[C@@]23CCO[C@@H]2CCN(c2ncc(F)cn2)C3)n1	-6.92%
Cc1cc(CN2C[C@H]3CCC[C@@]3(COCc3csc(C)n3)C2)no1	-9.15%
Cc1nc(COC[C@@]23CCC[C@@H]2CN(CC2CCOCC2)C3)cs1	-9.04%
O=C(c1cocn1)N1CCC2(CC1)COC(COCc1ccccn1)C2 (stereo unspecified)	0.202%
c1ncn(Cc2cn3c(n2)CN(CC2CCCC2)CC3)n1	1.84%
CN1CCS(=O)(=O)[C@@H]2CCN(C(=O)c3ccccc3)CC[C@@H]21	-9.02%
CC(C)OCc1nn(C)c2c1CCN(Cc1ccco1)C2	-7.18%
CCCS(=O)(=O)N1Cc2nccn2CC(CN2CCCC2)C1 (stereo unspecified)	-4.76%

SMILES	cytotoxicity at 70.5 h
COc1ccc(CC(=O)N2CC[C@@H]3[C@H](CC2)N(C)CCS3(=O)=O)cc1	-8.6%
CN(C)C(=O)[C@H]1C[C@H]2OCC[C@H]2N(CCOc2ccc(Cl)cc2)C1	-3.17%
CC(C)n1nc(Cn2cccn2)c2c1CN(C1CCOCC1)C2	-4.7%
CC(C)n1nc(Cn2cccn2)c2c1CN(C1CCOC1)C2 (stereo unspecified)	-4.66%
CC(C)n1nc(Cn2cccn2)c2c1CN(CC1CCOC1)C2 (stereo unspecified)	-4.31%
CC(C)n1nc(Cn2cccc2)c2c1CN(C1CCOCC1)C2	0.409%
CN(C)[C@@H]1CCN(C(=O)C2CCOCC2)[C@H]1Cc1ccncc1	6.4%
CN(C)C(=O)CN1CC[C@H]2[C@H]1CCN2c1ncccn1	-20.8%
CCN(C)c1ncnc2c1CCN(Cc1nccs1)CC2	6.96%
Cc1ccc(CN2CCC3(CC2)CCN(Cc2ccoc2)CC3)cc1	-5.46%
Cc1ccc(CN2CCC3(CC2)CCN(Cc2ccco2)CC3)cc1	-6.1%
CN1CCN(C[C@H]2OC[C@@H]3CCN(C(=O)c4cnccn4)C[C@@H]32)CC1	-2.22%
CCOCC1CN(CCOc2ccc(Cl)cc2)Cc2c1cnn2C (stereo unspecified)	2.89%
Cc1ccc(CN2C[C@H](N3CCOCC3)[C@@H]3OCCC[C@@H]32)o1	-0.951%
c1c(CN2CCCC2)nc2n1CCN(CC1CC1)C2	-4.19%
Cc1cc(CN2C[C@H](N3CCOCC3)[C@@H]3OCCC[C@@H]32)oc1C	-7.89%
c1snnc1CN1C[C@H]2CCC[C@@H](CN3CCOCC3)[C@H]2C1	-7.77%
CN(Cc1ccncc1)C1COC2(CCN(c3ncc(F)cn3)CC2)C1 (stereo unspecified)	-1.66%
c1cnc(N2CC[C@@H]3CN(Cc4ccncc4)CCO[C@@H]3C2)nc1	-2.03%
